pKd: −log10 of the molar value.
Legend:
Assay in all cases: Substrate Binding Assay
Settings in all cases: pH 8
[1] = molecular target: Probable salicylate monooxygenase [Y105F] (Rhodococcus jostii (strain RHA1), UniProt Q0SFK6, Y105F)
Procedure: (§1) The interaction of 3HB6H (25 uM) with substrate analogs was studied in 50 mM Tris-SO4 (pH 8.0). Dissociation constants (Kd) of enzyme-substrate complexes were determined from flavin absorption difference spectra essentially as described elsewhere [Montersino et al., Biochim. Biophys. Acta, 1824:433-442].

[2] = molecular target: T1, Probable salicylate monooxygenase (Rhodococcus jostii (strain RHA1), UniProt Q0SFK6)
T1 sequence (Q0SFK6 whole entry): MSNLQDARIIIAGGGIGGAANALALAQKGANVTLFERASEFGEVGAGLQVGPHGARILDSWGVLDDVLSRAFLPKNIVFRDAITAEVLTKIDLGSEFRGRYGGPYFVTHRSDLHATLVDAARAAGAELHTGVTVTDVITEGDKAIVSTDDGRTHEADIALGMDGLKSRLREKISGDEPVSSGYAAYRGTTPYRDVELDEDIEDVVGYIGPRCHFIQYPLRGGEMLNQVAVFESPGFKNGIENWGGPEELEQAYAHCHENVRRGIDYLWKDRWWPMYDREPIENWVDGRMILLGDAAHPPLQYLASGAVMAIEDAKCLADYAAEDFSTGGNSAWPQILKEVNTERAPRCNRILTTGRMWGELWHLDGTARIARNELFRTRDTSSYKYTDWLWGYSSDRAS
Procedure: as §1

[3] = molecular target: Probable salicylate monooxygenase [H213A] (Rhodococcus jostii (strain RHA1), UniProt Q0SFK6, H213A)
Procedure: as §1

O=C(O)c1cccc(O)c1
pKd [1]: 3.19 | pKd [2]: 4.32 | pKd [3]: 4.21
